In this test the test system is cells (HCT-116). Briefly: Intracellular delivery of nanoparticles produced from soluble microneedles (confocal fluorescence microscope). The format is cell-based. As to conditions: HCT-116 cells, 4 hours after treatment. As for the experimental part:
To this end, soluble microneedles in which a hydrophobic fluorescent material, DiD (Invitrogen, Carlsbad, CA, USA), used in cell membrane staining, was loaded were manufactured according to the method described in Example 1. Afterward, cells (HCT-116) were treated with a solution in which the microneedles were dissolved according to the method of Example 2, 4 hours later, intracellular delivery of nanoparticles produced from the soluble microneedles was observed using a confocal fluorescence microscope.

Turning to `CCCCCCCCCCCCCCCCCCN1C(=CC=CC=CC2=[N+](CCCCCCCCCCCCCCCCCC)c3ccccc3C2(C)C)C(C)(C)c2ccccc21.[I-]` [DiD, 1,1′-dioctadecyl-3,3,3′,3′-tetramethylindodicarbocyanine iodide], the “cellular localisation of the hydrophobic fluorescent material DiD” value is listed as “stained the cell membrane”.
